Experimental findings from patent publication US12503475B2 (Centessa Pharmaceuticals (UK) Limited, priority 2020, dated 2025) are described below.

This assay has as its target T1, human orexin type 2 receptor (hOX2R) (Homo sapiens, UniProt O43614).
T1 construct: expressed in transfected cells
T1 sequence (O43614 1-444): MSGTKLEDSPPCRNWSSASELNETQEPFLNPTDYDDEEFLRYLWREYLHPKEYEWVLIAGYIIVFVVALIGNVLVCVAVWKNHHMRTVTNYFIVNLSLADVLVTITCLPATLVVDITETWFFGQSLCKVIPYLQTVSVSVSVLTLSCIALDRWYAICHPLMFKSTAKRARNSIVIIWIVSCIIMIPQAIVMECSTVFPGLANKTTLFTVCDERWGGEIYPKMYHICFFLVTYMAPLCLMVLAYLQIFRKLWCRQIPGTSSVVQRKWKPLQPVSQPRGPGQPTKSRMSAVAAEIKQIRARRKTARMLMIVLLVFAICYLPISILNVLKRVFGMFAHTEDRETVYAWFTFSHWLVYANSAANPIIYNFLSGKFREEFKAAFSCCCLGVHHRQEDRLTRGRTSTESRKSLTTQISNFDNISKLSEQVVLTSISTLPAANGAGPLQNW
The experiment in a line: Measurement of orexin type 2 receptor agonist activity (FLIPR calcium fluorescence). Format: cell-based. The conditions noted are these: CHO cells expressing hOX2R, FLIPR calcium fluorescence; for EC50: read-out: hOx2 pEC50 (converted); for Emax: CHO, read-out: hOx2 Emax (%). Put shortly:
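Agonism was read as fluorescence in cells stably expressing human OX2R. E. is the response at 10 μM relative to orexin A as full agonist (100%).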

In general, Emax refers to the greatest response seen or fitted, relative to the assay's reference. As for `COCCNC(=O)N1CC2(CC2)[C@H](NS(=O)(=O)CF)[C@@H]1Cc1cccc(-c2ccccc2)c1F` [Compound 357, (6S,7S)-6-((2-fluoro-[1,1′-biphenyl]-3-yl)methyl)-7-((fluoromethyl)sulfonamido)-N-(2-methoxyethyl)-5-azaspiro[2.4]heptane-5-carboxamide], the EC50 was 10 to 100 nM and the maximal response (Emax) lay within 90 to 100%.
`CC(C#N)C(=O)N1CC2(CC2)[C@H](NS(C)(=O)=O)[C@@H]1Cc1cccc(-c2ccccc2)c1F` (stereo partly drawn) [Compound 358, N-((6S,7S)-5-(2-cyanopropanoyl)-6-((2-fluoro-[1,1′-biphenyl]-3-yl)methyl)-5-azaspiro[2.4]heptan-7-yl)methanesulfonamide]: the EC50 was 1 to 10 nM and the Emax was 90 to 100%.
For `[2H]c1ccc(-c2cc(F)cc(C[C@H]3[C@@H](NS(C)(=O)=O)C4(CC4)CN3C(=O)[C@H]3CCO3)c2F)cc1` [Compound 359], the EC50 was 10 to 100 nM and the Emax fell in the range of 90 to 100%.
Regarding `O=C([C@H](O)C(F)F)N1CC2(CC2)[C@H](NS(=O)(=O)CF)[C@@H]1Cc1cc(F)cc(-c2ccccc2)c1F` [Compound 360, N-((6S,7S)-5-((S)-3,3-difluoro-2-hydroxypropanoyl)-6-((2,5-difluoro-[1,1′-biphenyl]-3-yl)methyl)-5-azaspiro[2.4]heptan-7-yl)-1-fluoromethanesulfonamide], the EC50 is 1 to 10 nM and the maximum response (Emax) was 90 to 100%.
Taken in the same sequence, the figures for `CC(C)(O)C(=O)N1CC2(CC2)[C@H](NS(C)(=O)=O)[C@@H]1Cc1cccc(-c2ccccc2F)c1F` [Compound 361, N-((6S,7S)-6-((2,2'-difluoro-[1,1′-biphenyl]-3-yl)methyl)-5-(2-hydroxy-2-methylpropanoyl)-5-azaspiro[2.4]heptan-7-yl)methanesulfonamide] were 10 to 100 nM and 80 to 90%.
As for `N#CCS(=O)(=O)N[C@@H]1[C@H](Cc2cccc(-c3ccccc3)c2F)N(C(=O)[C@H]2CCO2)CC12CC2` [Compound 362, 1-cyano-N-((6S,7S)-6-((2-fluoro-[1,1′-biphenyl]-3-yl)methyl)-5-((R)-oxetane-2-carbonyl)-5-azaspiro[2.4]heptan-7-yl)methanesulfonamide], the EC50 is 10 to 100 nM and the Emax lay within 90 to 100%.
As for `[2H]C([2H])([2H])C([2H])([2H])NC(=O)N1CC2(CC2)[C@H](NS(C)(=O)=O)[C@@H]1Cc1cccc(-c2ccccc2)c1OC` [Compound 363, (6S,7S)-N-(ethyl-d5)-6-((2-methoxy-[1,1′-biphenyl]-3-yl)methyl)-7-(methylsulfonamido)-5-azaspiro[2.4]heptane-5-carboxamide], the EC50 was 10 to 100 nM and the Emax lay in the range of 70 to 80%.
For `C[C@H](CO)NC(=O)N1CC2(CC2)[C@H](NS(=O)(=O)C(F)F)[C@@H]1Cc1cccc(-c2ccccc2)c1F` [Compound 364, (6S,7S)-7-((difluoromethyl)sulfonamido)-6-((2-fluoro-[1,1′-biphenyl]-3-yl)methyl)-N-((R)-1-hydroxypropan-2-yl)-5-azaspiro[2.4]heptane-5-carboxamide], the EC50 was 0.0794 to 1 nM and the Emax is 90 to 100%.
As for `[2H]c1c([2H])c([2H])c(-c2cccc(C[C@H]3[C@@H](NS(=O)(=O)CF)C4(CC4)CN3C(=O)[C@H]3CCO3)c2F)c([2H])c1[2H]` [Compound 365, 1-fluoro-N-((6S,7S)-6-((2-fluoro-[1,1′-biphenyl]-3-yl-2′,3′,4′,5′,6′-d5)methyl)-5-((R)-oxetane-2-carbonyl)-5-azaspiro[2.4]heptan-7-yl)methanesulfonamide], the EC50 was 1 to 10 nM and the maximal response (Emax) lay in the range of 90 to 100%.
The like results for `O=C(NCC1COC1)N1CC2(CC2)[C@H](NS(=O)(=O)CF)[C@@H]1Cc1cccc(-c2ccccc2)c1F` [Compound 366, (6S,7S)-6-((2-fluoro-[1,1′-biphenyl]-3-yl)methyl)-7-((fluoromethyl)sulfonamido)-N-(oxetan-3-ylmethyl)-5-azaspiro[2.4]heptane-5-carboxamide] were, in that order, 1 to 10 nM and 90 to 100%.
Regarding `O=C(NCCF)N1CC2(CC2)[C@H](NS(=O)(=O)CF)[C@@H]1Cc1cccc(-c2ccccc2)c1F` [Compound 367, (6S,7S)-6-((2-fluoro-[1,1′-biphenyl]-3-yl)methyl)-N-(2-fluoroethyl)-7-((fluoromethyl)sulfonamido)-5-azaspiro[2.4]heptane-5-carboxamide], the EC50 is 0.0794 to 1 nM and the Emax is 90 to 100%.
The like results for `O=C(NC[C@@H]1CCO1)N1CC2(CC2)[C@H](NS(=O)(=O)C(F)F)[C@@H]1Cc1cccc(-c2ccccc2)c1F` [Compound 368, (6S,7S)-7-((difluoromethyl)sulfonamido)-6-((2-fluoro-[1,1′-biphenyl]-3-yl)methyl)-N-(((S)-oxetan-2-yl)methyl)-5-azaspiro[2.4]heptane-5-carboxamide] were, in that order, 1 to 10 nM and 90 to 100%.
With `O=C(NC(CF)CF)N1CC2(CC2)[C@H](NS(=O)(=O)CF)[C@@H]1Cc1cccc(-c2ccccc2)c1F` [Compound 369, (6S,7S)-N-(1,3-difluoropropan-2-yl)-6-((2-fluoro-[1,1′-biphenyl]-3-yl)methyl)-7-((fluoromethyl)sulfonamido)-5-azaspiro[2.4]heptane-5-carboxamide], the EC50 is 1 to 10 nM and the Emax is 90 to 100%.
Regarding `COC1(CNC(=O)N2CC3(CC3)[C@H](NS(=O)(=O)CF)[C@@H]2Cc2cccc(-c3ccccc3)c2F)CC1` [Compound 370, (6S,7S)-6-((2-fluoro-[1,1′-biphenyl]-3-yl)methyl)-7-((fluoromethyl)sulfonamido)-N-((1-methoxycyclopropyl)methyl)-5-azaspiro[2.4]heptane-5-carboxamide], the EC50 is 0.0794 to 1 nM and the Emax fell in the range of 90 to 100%.
In the case of `O=C(NCCF)N1CC2(CC2)[C@H](NS(=O)(=O)CF)[C@@H]1Cc1cc(F)cc(-c2ccccc2)c1F` [Compound 371, (6S,7S)-6-((2,5-difluoro-[1,1′-biphenyl]-3-yl)methyl)-N-(2-fluoroethyl)-7-((fluoromethyl)sulfonamido)-5-azaspiro[2.4]heptane-5-carboxamide], the EC50 is 1 to 10 nM and the maximal effect (Emax) is 90 to 100%.
Take `COC[C@@H](O)C(=O)N1CC2(CC2)[C@H](NS(=O)(=O)CF)[C@@H]1Cc1cccc(-c2ccccc2)c1F` [Compound 372, 1-fluoro-N-((6S,7S)-6-((2-fluoro-[1,1′-biphenyl]-3-yl)methyl)-5-((R)-2-hydroxy-3-methoxypropanoyl)-5-azaspiro[2.4]heptan-7-yl)methanesulfonamide]: the EC50 is 1 to 10 nM and the Emax lay within 90 to 100%.
For the compound `O=C([C@H](O)CF)N1CC2(CC2)[C@H](NS(=O)(=O)CF)[C@@H]1Cc1cc(F)cc(-c2cc(F)cc(F)c2)c1F` [Compound 373, 1-fluoro-N-((6S,7S)-5-((S)-3-fluoro-2-hydroxypropanoyl)-6-((2,3′,5,5′-tetrafluoro-[1,1′-biphenyl]-3-yl)methyl)-5-azaspiro[2.4]heptan-7-yl)methanesulfonamide], the EC50 was 1 to 10 nM and the maximal effect (Emax) lay in the range of 90 to 100%.
As to `O=C(NC[C@@H]1CCO1)N1CC2(CC2)[C@H](NS(=O)(=O)CF)[C@@H]1Cc1cccc(-c2ccccc2)c1F` [Compound 374, (6S,7S)-6-((2-fluoro-[1,1′-biphenyl]-3-yl)methyl)-7-((fluoromethyl)sulfonamido)-N-(((S)-oxetan-2-yl)methyl)-5-azaspiro[2.4]heptane-5-carboxamide], the EC50 was 1 to 10 nM and the Emax fell in the range of 90 to 100%.
`C[C@H](CF)NC(=O)N1CC2(CC2)[C@H](NS(=O)(=O)CF)[C@@H]1Cc1cc(F)cc(-c2ccccc2)c1F` [Compound 375, (6S,7S)-6-((2,5-difluoro-[1,1′-biphenyl]-3-yl)methyl)-7-((fluoromethyl)sulfonamido)-N-((R)-1-fluoropropan-2-yl)-5-azaspiro[2.4]heptane-5-carboxamide]: the EC50 was 0.0794 to 1 nM and the Emax lay within 90 to 100%.
With `CC[C@](C)(O)C(=O)N1CC2(CC2)[C@H](NS(=O)(=O)CF)[C@@H]1Cc1cccc(-c2cccc(F)c2)c1F` [Compound 376, N-((6S,7S)-6-((2,3′-difluoro-[1,1′-biphenyl]-3-yl)methyl)-5-((S)-2-hydroxy-2-methylbutanoyl)-5-azaspiro[2.4]heptan-7-yl)-1-fluoromethanesulfonamide], the EC50 is 1 to 10 nM and the Emax lay in the range of 90 to 100%.
With `O=C([C@@H](O)C1CC1)N1CC2(CC2)[C@H](NS(=O)(=O)C(F)F)[C@@H]1Cc1cccc(-c2cc(F)cc(F)c2)c1F` [Compound 377, N-((6S,7S)-5-((S)-2-cyclopropyl-2-hydroxyacetyl)-6-((2,3′,5′-trifluoro-[1,1′-biphenyl]-3-yl)methyl)-5-azaspiro[2.4]heptan-7-yl)-1,1-difluoromethanesulfonamide], the EC50 was 0.0794 to 1 nM and the Emax was in the range of 90 to 100%.
Consider `C[C@@H](F)C(=O)N1CC2(CC2)[C@H](NS(=O)(=O)C(F)F)[C@@H]1Cc1cccc(-c2cc(F)cc(F)c2)c1F` [Compound 378, 1,1-difluoro-N-((6S,7S)-5-((R)-2-fluoropropanoyl)-6-((2,3′,5′-trifluoro-[1,1′-biphenyl]-3-yl)methyl)-5-azaspiro[2.4]heptan-7-yl)methanesulfonamide], for which the EC50 was 0.0794 to 1 nM and the maximum response (Emax) was in the range of 90 to 100%.
